pIC50: −log10 of the molar value. Converted amounts (≈) assume the structure as drawn. Each block holds one compound with its values, some of them ahead of it.
How the values were obtained:
[1] = biological target: T1, Disintegrin and metalloproteinase domain-containing protein 17 (Homo sapiens, UniProt P78536); assay: Inhibition of TACE (unknown origin) by cell based assay; conditions: for IC50: read-out: pIC50 (converted)
[2] = biological target: T1, Disintegrin and metalloproteinase domain-containing protein 17; assay: Inhibition of TACE (unknown origin)
[3] = Stability in human liver microsomes assessed as parent compound remaining at 1 uM after 15 mins by LC-MS/MS analysis; format: ADME, microsome; conditions: read-out: Stability
[4] = biological target: T1, Disintegrin and metalloproteinase domain-containing protein 17; assay: Inhibition of recombinant human TACE catalytic domain using Mca-Pro-Leu-Ala-Gln-Ala-Val-Dpa-Arg-Ser-Ser-Ser-Arg-NH2 as substrate after 2 hrs by fluorescence assay
[5] = biological target: T1, Disintegrin and metalloproteinase domain-containing protein 17; assay: Inhibition of TACE in human PBMC assessed as inhibition of LPS-stimulated TNFalpha production
[6] = biological target: Disintegrin and metalloproteinase domain-containing protein 17 (Sus scrofa, UniProt O77636); assay: Inhibition of porcine spleen TACE using Mca-Pro-LeuAla-Gln-Ala-Val-Dpa-Arg-Ser-Ser-Ser-[…]-NH2 as substrate by fluorescence assay
Chain of Disintegrin and metalloproteinase domain-containing protein 17 (Sus scrofa, UniProt O77636) (O77636 whole entry, the tested form may be a part): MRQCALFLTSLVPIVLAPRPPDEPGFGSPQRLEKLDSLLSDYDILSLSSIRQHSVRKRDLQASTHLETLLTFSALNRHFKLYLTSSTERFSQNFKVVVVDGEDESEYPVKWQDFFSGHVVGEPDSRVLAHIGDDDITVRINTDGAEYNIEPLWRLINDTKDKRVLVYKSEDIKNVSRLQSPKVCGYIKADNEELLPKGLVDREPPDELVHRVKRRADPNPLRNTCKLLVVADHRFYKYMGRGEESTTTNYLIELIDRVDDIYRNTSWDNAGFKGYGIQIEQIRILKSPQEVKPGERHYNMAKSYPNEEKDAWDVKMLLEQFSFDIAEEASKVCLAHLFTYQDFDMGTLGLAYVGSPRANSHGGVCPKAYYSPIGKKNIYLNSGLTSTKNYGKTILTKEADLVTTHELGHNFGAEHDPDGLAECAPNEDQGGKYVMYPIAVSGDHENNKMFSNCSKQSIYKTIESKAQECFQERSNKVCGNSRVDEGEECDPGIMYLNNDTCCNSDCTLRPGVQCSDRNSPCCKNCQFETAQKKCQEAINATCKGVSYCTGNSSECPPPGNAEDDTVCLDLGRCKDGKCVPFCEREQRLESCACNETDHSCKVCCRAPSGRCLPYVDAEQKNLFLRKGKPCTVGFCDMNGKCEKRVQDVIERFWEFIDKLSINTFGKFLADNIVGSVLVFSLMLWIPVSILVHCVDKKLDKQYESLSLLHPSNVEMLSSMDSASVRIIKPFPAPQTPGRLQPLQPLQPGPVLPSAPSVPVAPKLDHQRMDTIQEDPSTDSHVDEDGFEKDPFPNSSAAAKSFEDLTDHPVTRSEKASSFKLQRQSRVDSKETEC

[7] = biological target: T1, Disintegrin and metalloproteinase domain-containing protein 17; assay: Inhibition of TACE in NHEK assessed as reduction in LPS/TPA-stimulated TNFalpha production preincubated for 1 hr followed by LPS/TPA stimulation for 24 hrs by HTRF assay
[8] = Aqueous solubility of the compound; format: physicochemical
[9] = biological target: Disintegrin and metalloproteinase domain-containing protein 17 (Mus musculus, UniProt Q9Z0F8); assay: Inhibition of TACE in mouse RAW264.7 cells assessed as inhibition of LPS-stimulated TNFalpha production pretreated for 1 hr followed by LPS stimulation for 4 hrs by ELISA; format: cell-based; conditions: read-out: IC50
Chain of Disintegrin and metalloproteinase domain-containing protein 17 (Mus musculus, UniProt Q9Z0F8) (Q9Z0F8 whole entry, the tested form may be a part): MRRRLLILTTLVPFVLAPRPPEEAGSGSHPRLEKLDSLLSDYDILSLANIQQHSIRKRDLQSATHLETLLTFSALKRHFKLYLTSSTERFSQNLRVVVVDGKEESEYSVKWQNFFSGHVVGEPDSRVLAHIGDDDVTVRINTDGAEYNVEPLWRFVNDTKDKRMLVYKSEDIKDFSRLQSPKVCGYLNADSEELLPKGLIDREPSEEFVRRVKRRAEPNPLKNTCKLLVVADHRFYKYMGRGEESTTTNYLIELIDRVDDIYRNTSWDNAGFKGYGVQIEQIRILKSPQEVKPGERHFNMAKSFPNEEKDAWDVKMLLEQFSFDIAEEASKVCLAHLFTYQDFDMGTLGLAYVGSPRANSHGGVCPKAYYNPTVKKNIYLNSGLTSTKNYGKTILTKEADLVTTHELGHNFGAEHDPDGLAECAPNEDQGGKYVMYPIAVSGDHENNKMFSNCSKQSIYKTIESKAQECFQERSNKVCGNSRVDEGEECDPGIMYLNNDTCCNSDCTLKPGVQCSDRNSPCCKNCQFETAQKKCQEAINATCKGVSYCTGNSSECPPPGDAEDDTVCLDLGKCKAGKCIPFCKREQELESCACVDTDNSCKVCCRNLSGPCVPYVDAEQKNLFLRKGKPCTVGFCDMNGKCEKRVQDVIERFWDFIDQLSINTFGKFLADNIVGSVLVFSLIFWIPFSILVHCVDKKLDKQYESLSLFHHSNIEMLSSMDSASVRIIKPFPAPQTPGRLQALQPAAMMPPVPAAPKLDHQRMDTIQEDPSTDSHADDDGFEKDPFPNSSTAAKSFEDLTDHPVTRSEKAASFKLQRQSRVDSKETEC

[10] = biological target: T1, Disintegrin and metalloproteinase domain-containing protein 17; assay: Inhibition of recombinant TACE catalytic domain (unknown origin) using Abz-LAQAVRSSSR-Dpa as substrate preincubated for 10 mins followed by substrate addition measured after 10 mins by FRET assay; conditions: for pIC50: read-out: IC50; for IC50: read-out: pIC50 (converted)

T1 sequence (P78536 whole entry, the tested form may be a part): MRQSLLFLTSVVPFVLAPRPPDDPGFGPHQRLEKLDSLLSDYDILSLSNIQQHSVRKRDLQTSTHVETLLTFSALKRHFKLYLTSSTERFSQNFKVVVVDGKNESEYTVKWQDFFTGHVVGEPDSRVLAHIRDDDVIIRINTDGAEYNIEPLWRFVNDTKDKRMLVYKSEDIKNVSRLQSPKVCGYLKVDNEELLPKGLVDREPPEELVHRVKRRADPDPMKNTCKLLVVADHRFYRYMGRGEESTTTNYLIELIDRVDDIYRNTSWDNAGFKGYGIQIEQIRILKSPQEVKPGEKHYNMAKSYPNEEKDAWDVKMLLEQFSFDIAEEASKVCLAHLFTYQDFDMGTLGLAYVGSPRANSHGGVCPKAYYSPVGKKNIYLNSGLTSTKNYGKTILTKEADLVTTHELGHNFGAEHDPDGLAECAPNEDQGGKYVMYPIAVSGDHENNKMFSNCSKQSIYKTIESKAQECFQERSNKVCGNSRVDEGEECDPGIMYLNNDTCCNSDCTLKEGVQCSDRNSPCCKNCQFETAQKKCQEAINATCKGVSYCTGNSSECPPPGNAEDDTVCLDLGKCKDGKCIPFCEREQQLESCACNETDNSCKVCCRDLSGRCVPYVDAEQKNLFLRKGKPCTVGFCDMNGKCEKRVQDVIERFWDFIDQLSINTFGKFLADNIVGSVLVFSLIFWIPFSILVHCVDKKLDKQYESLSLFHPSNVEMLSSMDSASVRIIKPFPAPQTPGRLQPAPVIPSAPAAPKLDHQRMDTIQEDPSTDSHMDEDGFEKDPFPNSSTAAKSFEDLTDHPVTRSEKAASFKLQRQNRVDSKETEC

IC50 [1]: 3.98 µM
pIC50 [2]: 8.20
SMILES: CNC(=O)[C@@H]1Cc2ccc(cc2)OCCCC[C@H](C(=O)NO)[C@@H](CCCc2cc(OC)ccc2OC)C(=O)N1

remaining at […], 1 µM [3]: 100%
pIC50 [4]: 7.40
SMILES: COC(=O)N1CCN(S(=O)(=O)c2ccc(OCc3cc(C)nc4c3CCCC4)cc2)CC1C(=O)NO (centres undefined)

pIC50 [5]: 5.72
pIC50 [6]: 8.30
SMILES: COc1cc(COc2ccc3c(c2)NCCN([C@H](CCCCNS(C)(=O)=O)C(=O)NO)S3)cc(OC)c1

pIC50 [7]: 7.22
pIC50 [4]: 8.22
SMILES: Cc1cc(COc2ccc(S(=O)(=O)NC[C@@H](C(=O)NO)N3CCCCC3)cc2)c2c(n1)CCCC2

pIC50 [7]: < 5.00
solubility [8]: 41 µM (≈ 18.7 µg/mL)
pIC50 [4]: 7.46
SMILES: Cc1cc(COc2ccc(S(=O)(=O)N3CCC(C)(C(=O)NO)C3)cc2)c2ccccc2n1 (centres undefined)

pIC50 [7]: < 5.00
remaining at […], 1 µM [3]: 54%
pIC50 [4]: 6.82
SMILES: Cc1cc(COc2ccc(S(=O)(=O)N3CCN(C4CCC4)C(C(=O)NO)C3)cc2)c2c(n1)CCCC2 (centres undefined)

pIC50 [5]: 6.08
pIC50 [6]: 6.12
SMILES: C[C@H](C(=O)NO)N1CCNc2cc(Oc3ccc(C(F)(F)F)cc3)ccc2S1

IC50 [1]: 0.398 µM
pIC50 [2]: 8.50
SMILES: CNC(=O)[C@@H]1Cc2ccc(cc2)OCCCC[C@H](C(=O)NO)[C@@H](CCCc2ccc(Cl)cc2)C(=O)N1

pIC50 ([1]; read-out: IC50): 5.30
pIC50 [2]: 7.10
SMILES: O=C(c1ccccc1)[C@@H]1Cc2ccc(cc2)OCCCC[C@H](C(=O)NO)[C@@H](CCCc2cc(Br)cc(Br)c2)C(=O)N1

remaining at […], 1 µM [3]: 91%
pIC50 [4]: 7.59
SMILES: Cc1cc(COc2ccc(S(=O)(=O)N3CCN(C(=O)C(C)C)C(C(=O)NO)C3)cc2)c2c(n1)CCCC2 (centres undefined)

remaining at […], 1 µM [3]: 80%
pIC50 [4]: 6.80
SMILES: Cc1cc(COc2ccc(S(=O)(=O)N3CCN(C)C(C(=O)NO)C3)cc2)c2c(n1)CCCC2 (centres undefined)

pIC50 [5]: 5.96
pIC50 [6]: 7.89
SMILES: CCOc1cc(COc2ccc3c(c2)NCCN([C@H](CCCC(=O)OC)C(=O)NO)S3)cc(OCC)c1

remaining at […], 1 µM [3]: 100%
pIC50 [4]: 7.64
SMILES: CCC(=O)N1CCN(S(=O)(=O)c2ccc(OCc3cc(C)nc4c3CCCC4)cc2)CC1C(=O)NO (centres undefined)

remaining at […], 1 µM [3]: 88%
pIC50 [4]: 7.54
SMILES: Cc1cc(COc2ccc(S(=O)(=O)N3CCN(S(C)(=O)=O)C(C(=O)NO)C3)cc2)c2c(n1)CCCC2 (centres undefined)

pIC50 [7]: < 5.00
solubility [8]: < 1 µM
pIC50 [4]: 7.22
SMILES: Cc1cc(COc2ccc(S(=O)(=O)N3CCCC(C(=O)NO)C3)cc2)c2ccccc2n1 (centres undefined)

pIC50 [7]: < 5.00
pIC50 [4]: 6.68
SMILES: Cc1cc(COc2ccc(S(=O)(=O)N3CCC(C(=O)NO)C3)cc2)c2c(n1)CCCC2 (centres undefined)

pIC50 [5]: 6.05
pIC50 [6]: 8.00
SMILES: COC(=O)CCC[C@H](C(=O)NO)N1CCNc2cc(OCc3cc(OC)cc(OC)c3)ccc2S1

pIC50 [5]: 5.27
pIC50 [6]: 7.77
SMILES: COc1cc(COc2ccc3c(c2)NCCN([C@H](CC(C)C)C(=O)NO)S3)cc(OC)c1

remaining at […], 1 µM [3]: 85%
pIC50 [4]: 7.80
SMILES: Cc1cc(COc2ccc(S(=O)(=O)N3CCN(C(=O)c4ccccc4)C(C(=O)NO)C3)cc2)c2c(n1)CCCC2 (centres undefined)

pIC50 [7]: < 5.00
pIC50 [4]: 6.46
SMILES: CC(=O)N1C[C@@H](S(=O)(=O)c2ccc(OCc3cc(C)nc4c3CCCC4)cc2)C[C@H]1C(=O)NO

IC50 [1]: 0.316 µM
pIC50 [2]: 7.50
SMILES: CNC(=O)[C@@H]1Cc2ccc(cc2)OCCCC[C@H](C(=O)NO)[C@@H](CCCc2cc(C(F)(F)F)cc(C(F)(F)F)c2)C(=O)N1

pIC50 [5]: 6.11
pIC50 [6]: 7.57
SMILES: COc1cc(COc2ccc3c(c2)NCCN([C@H](C)C(=O)NO)S3)cc(OC)c1

pIC50 [5]: 5.35
pIC50 [6]: 7.09
SMILES: CCOc1cc(COc2ccc3c(c2)NCCN([C@H](C)C(=O)NO)S3)cc(OCC)c1

IC50 [1]: 15.8 µM
pIC50 [2]: 7.10
SMILES: COCCOc1cc(CCC[C@H]2C(=O)N[C@H](C(=O)c3ccccc3)Cc3ccc(cc3)OCCCC[C@@H]2C(=O)NO)cc(OC)c1

pIC50 [5]: 5.92
pIC50 [6]: 7.96
SMILES: C[C@H](C(=O)NO)N1CCNc2cc(Oc3ccc([N+](=O)[O-])cc3)ccc2S1

pIC50 [5]: 6.46
pIC50 [6]: 6.75
SMILES: CC(C)C[C@H](C(=O)NO)N1CCNc2cc(OCc3ccccc3)ccc2S1

pIC50 [9]: 7.70
pIC50 [10]: 9.22
SMILES: CC(=O)N1C[C@H](C(=O)NO)[C@H](NS(=O)(=O)c2ccc(OCc3cc(C)nc4ccccc34)cc2)C1 (relative stereo)

pIC50 [9]: 7.10
pIC50 [10]: 9.00
SMILES: Cc1cc(COc2ccc(S(=O)(=O)N[C@@H]3CCCC[C@@H]3C(=O)NO)cc2)c2ccccc2n1 (relative stereo)

pIC50 [5]: 5.14
pIC50 [6]: 6.75
SMILES: COC(=O)CC[C@H](C(=O)NO)N1CCNc2cc(OCc3cc(OC)cc(OC)c3)ccc2S1

pIC50 [5]: 6.33
pIC50 [6]: 6.89
SMILES: C[C@H](C(=O)NO)N1CCNc2cc(Oc3cccc([N+](=O)[O-])c3)ccc2S1

pIC50 [7]: < 5.00
pIC50 [4]: 7.08
SMILES: Cc1cc(COc2ccc(S(=O)(=O)N3Cc4ccccc4C(C(=O)NO)C3)cc2)c2ccccc2n1 (centres undefined)

pIC50 [9]: 5.72
IC50 [10]: 6.31 nM
SMILES: Cc1cc(COc2ccc(S(=O)(=O)N[C@@H]3CCOC[C@@]3(C)C(=O)NO)cc2)c2ccccc2n1

pIC50 [9]: 6.00
IC50 [10]: 3.98 nM
SMILES: CNC(=O)N1CC[C@@H](NS(=O)(=O)c2ccc(OCc3cc(C)nc4ccccc34)cc2)[C@@](C)(C(=O)NO)C1

pIC50 [9]: 6.00
IC50 [10]: 6.31 nM
SMILES: CC(=O)N1CC[C@@H](NS(=O)(=O)c2ccc(OCc3cc(C)nc4ccccc34)cc2)[C@@](C)(C(=O)NO)C1

remaining at […], 1 µM [3]: 83%
pIC50 [4]: 7.72
SMILES: Cc1cc(COc2ccc(S(=O)(=O)N3CCN(C(=O)C4CCC4)C(C(=O)NO)C3)cc2)c2c(n1)CCCC2 (centres undefined)

pIC50 [9]: 7.24
IC50 [10]: 1.26 nM
SMILES: Cc1cc(COc2ccc(S(=O)(=O)N[C@@H]3CN(C(=O)NC(C)(C)C)CC[C@@H]3C(=O)NO)cc2)c2ccccc2n1

pIC50 [5]: 5.02
pIC50 [6]: 7.05
SMILES: CC(C)C[C@H](C(=O)NO)N1CCNc2cc(O)ccc2S1

pIC50 [7]: 5.04
remaining at […], 1 µM [3]: 92%
solubility [8]: 61 µM (≈ 30.7 µg/mL)
pIC50 [4]: 7.85
SMILES: CC(=O)N1CCN(S(=O)(=O)c2ccc(OCc3cc(C)nc4c3CCCC4)cc2)CC1C(=O)NO (centres undefined)

pIC50 [9]: 6.57
pIC50 [10]: 9.22
SMILES: Cc1cc(COc2ccc(S(=O)(=O)N[C@@H]3CCC[C@]3(C)C(=O)NO)cc2)c2ccccc2n1

pIC50 [9]: 6.00
pIC50 [10]: 9.22
SMILES: Cc1cc(COc2ccc(S(=O)(=O)N[C@@H]3CCN(C=O)C[C@]3(C)C(=O)NO)cc2)c2ccccc2n1

pIC50 [9]: 7.74
pIC50 [10]: 9.22
SMILES: Cc1cc(COc2ccc(S(=O)(=O)N[C@@H]3[C@H]4CC[C@H](C4)[C@@H]3C(=O)NO)cc2)c2ccccc2n1

pIC50 [9]: 7.22
pIC50 [10]: 8.74
SMILES: Cc1cc(COc2ccc(S(=O)(=O)N[C@H]3CCCC[C@@H]3C(=O)NO)cc2)c2ccccc2n1 (relative stereo)

pIC50 [5]: 6.03
pIC50 [6]: 6.82
SMILES: C[C@H](C(=O)NO)N1CCNc2cc(OCc3cc(Cl)cc(Cl)c3)ccc2S1

pIC50 [5]: 5.09
pIC50 [6]: 7.29
SMILES: CCOc1cc(COc2ccc3c(c2)NCCN([C@@H](C(=O)NO)C(C)C)S3)cc(OCC)c1

pIC50 [9]: 7.29
IC50 [10]: 1.26 nM
SMILES: CCNC(=O)N1C[C@H](C(=O)NO)[C@H](NS(=O)(=O)c2ccc(OCc3cc(C)nc4ccccc34)cc2)C1 (relative stereo)

pIC50 [5]: 5.40
pIC50 [6]: 8.00
SMILES: COc1cc(COc2ccc3c(c2)NCCN([C@@H](C(=O)NO)C(C)C)S3)cc(OC)c1

pIC50 [9]: 6.00
IC50 [10]: 200 nM
SMILES: Cc1cc(COc2ccc(S(=O)(=O)N[C@@H]3CCN(C(C)C)C[C@]3(C)C(=O)NO)cc2)c2ccccc2n1

pIC50 [5]: 5.54
pIC50 [6]: 6.26
SMILES: Cc1cc(COc2ccc3c(c2)NCCN([C@H](C)C(=O)NO)S3)cc(C)n1

pIC50 [9]: 7.60
pIC50 [10]: 9.22
SMILES: Cc1cc(COc2ccc(S(=O)(=O)N[C@]3(C)CCCC[C@@H]3C(=O)NO)cc2)c2ccccc2n1 (racemic)

pIC50 [9]: 6.00
IC50 [10]: 10 nM
SMILES: CC[C@]1(C(=O)NO)CCC[C@H]1N(C)S(=O)(=O)c1ccc(OCc2cc(C)nc3ccccc23)cc1

pIC50 [5]: 4.61
pIC50 [6]: 6.54
SMILES: Cc1nc(COc2ccc3c(c2)NCCN([C@@H](C(=O)NO)C(C)C)S3)sc1C

pIC50 [9]: 6.00
IC50 [10]: 100 nM
SMILES: Cc1cc(COc2ccc(S(=O)(=O)N[C@@H]3CCNC[C@]3(O)C(=O)NO)cc2)c2ccccc2n1

remaining at […], 1 µM [3]: 64%
pIC50 [4]: 7.64
SMILES: Cc1cc(COc2ccc(S(=O)(=O)N3CCN(C(=O)CC(C)C)C(C(=O)NO)C3)cc2)c2c(n1)CCCC2 (centres undefined)

pIC50 [9]: 6.00
IC50 [10]: 2.51 nM
SMILES: CC[C@]1(C(=O)NO)CCC[C@H]1NS(=O)(=O)c1ccc(OCc2cc(C)nc3ccccc23)cc1

pIC50 [7]: 5.51
remaining at […], 1 µM [3]: 88%
solubility [8]: 58 µM (≈ 30.7 µg/mL)
pIC50 [4]: 7.89
SMILES: Cc1cc(COc2ccc(S(=O)(=O)N3CCN(C(=O)C4CC4)C(C(=O)NO)C3)cc2)c2c(n1)CCCC2 (centres undefined)

pIC50 [5]: 5.21
pIC50 [6]: 6.62
SMILES: CCOc1cc(COc2ccc3c(c2)NCCN([C@H](CCC(=O)OC)C(=O)NO)S3)cc(OCC)c1

From ChEMBL document CHEMBL4007472, “Identification of novel TACE inhibitors compatible with topical application” (Bioorg Med Chem Lett, 2017)
